Reference: patent US20220054513A1, “COMBINATION COMPOSITIONS COMPRISING A BETA-LACTAMASE INHIBITOR” (VenatoRx Pharmaceuticals, Inc., priority 2018, published 2022)
Where two headings read alike, the source gives them in different places.

Assays:
[1] = system: β-lactamase expressing Enterobacteriaceae; test: broth microdilution MIC of cefiderocol +/- Compound 1, panel of 30 Enterobacteriaceae strains (MIC50/MIC90); type: cell-based
[2] = system: β-lactamase expressing E. cloacae; test: broth microdilution MIC of cefiderocol +/- Compound 1, E. cloacae strains; type: cell-based; conditions: Enterobacter cloacae
[3] = system: β-lactamase expressing P. mirabilis; test: broth microdilution MIC of cefiderocol +/- Compound 1, P. mirabilis strain; type: cell-based; conditions: Proteus mirabilis, read-out: Minimum inhibitory concentration (MIC), P. mirabilis CDC-159 (NDM)
[4] = system: MDR-Pseudomonas; test: broth microdilution MIC of cefiderocol +/- Compound 1 in IDM, panel of 16 MDR Pseudomonas aeruginosa; type: cell-based, P. aeruginosa; conditions: for MIC: Pseudomonas aeruginosa, read-out: Minimum inhibitory concentration (MIC)
[5] = system: carbapenem resistant Enterobacteriaceae (CRE); test: MIC of cefiderocol with Compound 1 vs approved BL/BLI combinations, 120 CRE isolates
Procedure: A panel of 30 strains of characterized Enterobacteriaceae isolates produce Ambler class A, B, C, and D β-lactamase were used. […] IDM was prepared by adding 100 g of chelex (a chelating agent) to 1 L of sterile CAMBH and stirring for 2 hours. The chelex treated media was then filtered using a 0.2 μm filter and divalent Ca, Mg, and Zn are added back at relevant concentrations. The pH was adjusted to 7.2 using HCl and the media was filtered again to ensure sterility. This created a medium that was devoid of iron but retains appropriate concentration of other cations and was necessary for evaluating the activity of cefiderocol originating from its uptake by bacterial iron transporters. Bacteria strains were grown for 3-5 hours in CAMHB and IDM. Cefiderocol was added either to a microtiter plate in 2-fold serial dilutions in CAMHB and in parallel in IDM. […] Once the test articles were added the plates were inoculated according to CLSI broth microdilution method.
The challenge set of organisms consisted of a variety of Enterobacteriaceae species expressing IMP (n=30), NDM (30), VIM (15), KPC (n=30), and AmpC (n=15).

[6] = panel of 16 MDR Pseudomonas aeruginosa, IDM

Structure (SMILES): CC(C)(O/N=C(\C(=O)N[C@@H]1C(=O)N2C(C(=O)[O-])=C(C[N+]3(CCNC(=O)c4ccc(O)c(O)c4Cl)CCCC3)CS[C@H]12)c1csc(N)n1)C(=O)O [FDC, cefiderocol]
- MIC50 ([1]; IDM): 0.5 µg/mL
- MIC90 ([1]; IDM): 4 µg/mL
- MIC50 ([1]; MHBII): 4 µg/mL
- MIC90 ([1]; MHBII): 32 µg/mL
- MIC ([2]; read-out: Minimum inhibitory concentration (MIC), E. cloacae CDC-93 (KPC), IDM): 0.5 µg/mL
- MIC ([2]; read-out: Minimum inhibitory concentration (MIC), E. cloacae CDC-93 (KPC), MHBII): 1 µg/mL
- MIC ([2]; read-out: Minimum inhibitory concentration (MIC), E. cloacae CDC-161 (IMP), IDM): 1 µg/mL
- MIC ([2]; read-out: Minimum inhibitory concentration (MIC), E. cloacae CDC-161 (IMP), MHBII): 16 µg/mL
- MIC ([2]; read-out: Minimum inhibitory concentration (MIC), E. cloacae Entb239 (p99 AmpC, KPC-3, CTXM-15, GES-1, IMI-1), IDM): 2 µg/mL
- MIC ([2]; read-out: Minimum inhibitory concentration (MIC), E. cloacae Entb239 (p99 AmpC, KPC-3, CTXM-15, GES-1, IMI-1), MHBII): 1 µg/mL
- MIC ([3]; IDM): 4 µg/mL
- MIC ([3]; MHBII): 32 µg/mL
- MIC ([4]; P. aeruginosa 40, IDM): 4 µg/mL
- MIC ([4]; P. aeruginosa 451, IDM): 4 µg/mL
- MIC ([4]; P. aeruginosa 635, IDM): 0.5 µg/mL
- MIC ([4]; P. aeruginosa 152021, IDM): 0.25 µg/mL
- MIC ([4]; P. aeruginosa 1013996, IDM): 0.25 µg/mL
- MIC ([4]; P. aeruginosa 1121828, IDM): 1 µg/mL
- MIC ([4]; P. aeruginosa 1131170, IDM): 2 µg/mL
- MIC ([4]; P. aeruginosa 1179543, IDM): 2 µg/mL
- MIC ([4]; P. aeruginosa CDC-0054, IDM): 0.5 µg/mL
- MIC ([4]; P. aeruginosa CDC-0064, IDM): 0.5 µg/mL
- MIC ([4]; P. aeruginosa CDC-0095, IDM): 0.059 µg/mL
- MIC ([4]; P. aeruginosa CDC-0103, IDM): 4 µg/mL
- MIC ([4]; P. aeruginosa CDC-0108, IDM): 0.25 µg/mL
- MIC ([4]; P. aeruginosa CDC-0110, IDM): 8 µg/mL
- MIC ([4]; P. aeruginosa CDC-0111, IDM): 0.059 µg/mL
- MIC [4]: 0.125 µg/mL
- MIC50 [4, 6]: 0.5 µg/mL
- MIC90 [4, 6]: 4 µg/mL
- MIC [5]: 0.059 µg/mL
- MIC50 [5]: 1 µg/mL
- MIC90 [5]: 8 µg/mL
- MIC ([5]; Enterobacter cloacae, Enterobacter cloacae 1207515 (NDM-6), IDM): 64 µg/mL
- MIC ([5]; Enterobacter cloacae, Enterobacter cloacae 1212159 (NDM-6), IDM): 16 µg/mL
- MIC ([5]; Enterobacter cloacae, Enterobacter cloacae 1212160 (NDM-6), IDM): 16 µg/mL
- MIC ([5]; Enterobacter cloacae, Enterobacter cloacae 1256568 (VIM-23), IDM): 0.125 µg/mL
- MIC ([5]; Enterobacter cloacae, Enterobacter cloacae 1284042 (VIM-5), IDM): 8 µg/mL
- MIC ([5]; Enterobacter cloacae, Enterobacter cloacae 1284044 (VIM-5), IDM): 4 µg/mL
- MIC ([5]; Enterobacter cloacae, Enterobacter cloacae 1284065 (VIM-5), IDM): 4 µg/mL
- MIC ([5]; Enterobacter cloacae, Enterobacter cloacae 1284066 (VIM-5), IDM): 32 µg/mL
- MIC ([5]; Enterobacter cloacae, Enterobacter cloacae 1455568 (NDM-4), IDM): 16 µg/mL
- MIC ([5]; Enterobacter cloacae, Enterobacter cloacae 1488830 (IMP-14), IDM): 2 µg/mL
- MIC ([5]; Enterobacter cloacae, Enterobacter cloacae 1490669 (IMP-4), IDM): 0.25 µg/mL
- MIC ([5]; Enterobacter cloacae, Enterobacter cloacae 1590932 (VIM-4), IDM): 2 µg/mL
- MIC ([5]; Enterobacter cloacae, Enterobacter cloacae 1703478 (IMP-4), IDM): 0.125 µg/mL
- MIC ([5]; Enterobacter cloacae, Enterobacter cloacae IHMA 908146 (ACT-1, CTX-M-22, IMP), IDM): 0.125 µg/mL
- MIC ([5]; Escherichia coli, Escherichia coli 128 (AmpC, SHV-12, TOHO-2, TEM-1), IDM): 0.5 µg/mL
- MIC ([5]; Escherichia coli, Escherichia coli 233 (AmpC, SHV-2, KPC-3, CTX-M-15 and TEM-1), IDM): 1 µg/mL
- MIC ([5]; Escherichia coli, Escherichia coli 469 (AmpC, SHV-12, TEM-1), IDM): 0.5 µg/mL
- MIC ([5]; Escherichia coli, Escherichia coli 3073 (AmpC, CTX-M-3), IDM): 1 µg/mL
- MIC ([5]; Escherichia coli, Escherichia coli 3102 (AmpC, CTX-M-15, TEM-1), IDM): 0.059 µg/mL
- MIC ([5]; Escherichia coli, Escherichia coli 54321 (AmpC, CTX-M-15, TEM-1), IDM): 2 µg/mL
- MIC ([5]; Escherichia coli, Escherichia coli 64167 (AmpC, TEM-1, GES-5), IDM): 0.25 µg/mL
- MIC ([5]; Escherichia coli, Escherichia coli 786978 (KPC-2), IDM): 0.5 µg/mL
- MIC ([5]; Escherichia coli, Escherichia coli 1266865 (NDM-5), IDM): 8 µg/mL
- MIC ([5]; Escherichia coli, Escherichia coli 1275629 (VIM-23), IDM): 0.5 µg/mL
- MIC ([5]; Escherichia coli, Escherichia coli 1275635 (VIM-23), IDM): 0.5 µg/mL
- MIC ([5]; Escherichia coli, Escherichia coli 1371539 (NDM-6), IDM): 2 µg/mL
- MIC ([5]; Escherichia coli, Escherichia coli 1424126 (NDM-5), IDM): 128 µg/mL
- MIC ([5]; Escherichia coli, Escherichia coli 1438691 (NDM-5), IDM): 16 µg/mL
- MIC ([5]; Escherichia coli, Escherichia coli 1438767 (NDM-5), IDM): 128 µg/mL
- MIC ([5]; Escherichia coli, Escherichia coli 1468388 (IMP-59), IDM): 2 µg/mL
- MIC ([5]; Escherichia coli, Escherichia coli CH1 (AmpC, TEM-1, CTX-M-15, SHV-5, SHV-1), IDM): 0.25 µg/mL
- MIC ([5]; Escherichia coli, Escherichia coli EC15521A (AmpC, CMY-2, TEM-1), IDM): 4 µg/mL
- MIC ([5]; Escherichia coli, Escherichia coli EC15522A (AmpC, CMY-2, TEM-1, CTX-M-15), IDM): 0.059 µg/mL
- MIC ([5]; Escherichia coli, Escherichia coli J53 (SHV-5, AmpC, TEM-1), IDM): 0.03 µg/mL
- MIC ([5]; Escherichia coli, Escherichia coli SI-LP505 (AmpC, CTX-M-14, TEM-1), IDM): 0.5 µg/mL
- MIC ([5]; Escherichia coli, Escherichia coli SI-LP574 (AmpC, CTX-M-14, TEM-1), IDM): 0.059 µg/mL
- MIC ([5]; Escherichia coli, Escherichia coli SI-P026 (AmpC, CMY-2, TEM-1), IDM): 0.059 µg/mL
- MIC ([5]; Escherichia coli, Escherichia coli SI-Vr059 (AmpC, CTX-M-32 and TEM-1), IDM): 2 µg/mL
- MIC ([5]; Klebsiella aerogenes, Enterobacter aerogenes 847438 (CTX-M-2, KPC), IDM): 0.059 µg/mL
- MIC ([5]; Klebsiella aerogenes, Enterobacter aerogenes CDC-0161 (IMP-4, TEM-1B, OXA-1, SFO-1), IDM): 2 µg/mL
- MIC ([5]; Klebsiella aerogenes, Enterobacter aerogenes IHMA 846505 (CMY-2, IMP), IDM): 0.5 µg/mL
- MIC ([5]; Klebsiella aerogenes, Enterobacter aerogenes IHMA 890184 (IMP), IDM): 0.059 µg/mL
- MIC ([5]; Klebsiella oxytoca, Klebsiella oxytoca 847537 (KPC-2), IDM): 1 µg/mL
